Laboratory results published in BindingDB's records for doi:10.1016/j.ejmech.2017.04.079 (Harvard Medical School, 2017).

Assays:
[1] = Inhibition of EML4/ALK (unknown origin) transfected in mouse BAF3 cells assessed as reduction in cell viability after 72 hrs by MTS assay
[2] = Inhibition of EGFR T790M/L858R double mutant (unknown origin) transfected in mouse BAF3 cells assessed as reduction in cell viability after 72 hrs by MTS assay
[3] = Inhibition of EGFR L858R mutant (unknown origin) transfected in mouse BAF3 cells assessed as reduction in cell viability after 72 hrs by MTS assay

SMILES | EC50 [1] [nM] | EC50 [2] [nM] | EC50 [3] [nM]
C=CC(=O)Nc1cccc(Oc2nc(Nc3ccc(N4CCN(C)CC4)cc3OC)ncc2Cl)c1 | 6260 | – | –
CCC(=O)Nc1cc(Nc2ncc(Cl)c(Nc3ccccc3S(=O)(=O)C(C)C)n2)c(OC)cc1N(C)CCN(C)C | – | 972 | 666
C=CC(=O)Nc1cc(Nc2nccc(Nc3ccccc3P(C)(C)=O)n2)c(OC)cc1N(C)CCN(C)C | > 5000 | – | –
C=CC(=O)Nc1cc(Nc2nccc(-c3cn(C)c4ccccc34)n2)c(OC)cc1N(C)CCN(C)C [AZD-9291] | 1750 | – | –
